# Laboratory results reported in ChEMBL document CHEMBL1159090 (Bioorg Med Chem Lett, 2010).
# Assays:
# Histamine H1 receptor = Histamine H1 receptor (Homo sapiens, UniProt P35367); test: Displacement of [3H]Pyrilamine from human cloned histamine H1 receptor
# [1] = biological target: 5-hydroxytryptamine receptor 2A (Homo sapiens, UniProt P28223); test: Displacement of [3H]Ketanserin from human cloned 5HT2A receptor
# Sequence of 5-hydroxytryptamine receptor 2A (P28223 whole entry): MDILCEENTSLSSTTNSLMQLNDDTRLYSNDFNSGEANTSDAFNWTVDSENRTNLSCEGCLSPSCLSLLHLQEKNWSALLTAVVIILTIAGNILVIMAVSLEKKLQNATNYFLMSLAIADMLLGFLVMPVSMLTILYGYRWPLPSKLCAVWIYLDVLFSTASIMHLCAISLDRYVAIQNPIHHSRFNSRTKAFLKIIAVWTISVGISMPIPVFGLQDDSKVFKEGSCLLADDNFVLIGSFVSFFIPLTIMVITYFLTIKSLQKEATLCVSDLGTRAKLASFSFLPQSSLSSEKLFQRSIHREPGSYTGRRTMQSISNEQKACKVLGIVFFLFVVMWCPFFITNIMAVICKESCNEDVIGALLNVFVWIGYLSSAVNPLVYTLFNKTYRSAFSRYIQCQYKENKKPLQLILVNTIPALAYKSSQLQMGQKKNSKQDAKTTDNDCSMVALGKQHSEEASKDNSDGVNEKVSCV
# Sequence of Histamine H1 receptor (P35367 whole entry): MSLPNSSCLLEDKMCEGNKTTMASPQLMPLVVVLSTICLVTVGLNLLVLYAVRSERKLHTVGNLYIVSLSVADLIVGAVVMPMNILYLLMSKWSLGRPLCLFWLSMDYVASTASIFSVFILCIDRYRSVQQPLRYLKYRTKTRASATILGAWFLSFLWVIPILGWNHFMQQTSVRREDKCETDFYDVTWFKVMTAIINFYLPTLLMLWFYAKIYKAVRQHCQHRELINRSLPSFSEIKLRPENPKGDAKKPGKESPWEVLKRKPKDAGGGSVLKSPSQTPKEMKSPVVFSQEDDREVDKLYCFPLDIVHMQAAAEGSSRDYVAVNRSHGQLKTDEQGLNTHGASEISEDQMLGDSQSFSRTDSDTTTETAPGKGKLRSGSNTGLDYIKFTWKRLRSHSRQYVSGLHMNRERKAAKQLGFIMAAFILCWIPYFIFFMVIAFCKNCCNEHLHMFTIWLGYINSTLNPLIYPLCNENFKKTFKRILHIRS
SMILES,Ki (Histamine H1 receptor),Ki [1]
c1ccc(CCCNCC2c3ccccc3Cc3ccccc32)cc1,725 nM,223 nM
c1ccc(CCNCC2c3ccccc3Cc3ccccc32)cc1,242 nM,400 nM
COc1ccc2c3c(ccc2c1)Cc1ccccc1C3CN (stereo not drawn),2640 nM,21 nM
c1ccc(CCCCNCC2c3ccccc3Cc3ccccc32)cc1,964 nM,365 nM
